*1 amine or outer side, *2 acyl side, *3 side chain or, on linkers, in order; H or OH if unused. Where a SMILES comes first, the peptide text is derived from it. Side-chain parts run from the residue outwards. [ ]: non-standard residue; d: D form. The star is where a group is joined. C18 diacid = O=C(O)CCCCCCCCCCCCCCCCC(=O)*; C16 diacid = O=C(O)CCCCCCCCCCCCCCC(=O)*; γGlu = O=C(O)[C@H](CCC(=O)[*:2])N[*:1]; pGlu = O=C1CC[C@@H](C(=O)O)N1; AEEA = NCCOCCOCC(=O)O
How the values were obtained:
Format in all cases: cell-based
human GIP receptor [1] = target: T1, human GIP receptor (Homo sapiens, UniProt P48546); assay: cAMP antagonism (CisBio cAMP Dynamic 2 HTRF assay); parameters: pCMV-Script vector; conditions: Table 1C, CisBio, HEK-293 cells; for IC50: cAMP antagonism, nM (IC50), agonist GIP1-42 at EC50
T1 sequence (P48546 22-466): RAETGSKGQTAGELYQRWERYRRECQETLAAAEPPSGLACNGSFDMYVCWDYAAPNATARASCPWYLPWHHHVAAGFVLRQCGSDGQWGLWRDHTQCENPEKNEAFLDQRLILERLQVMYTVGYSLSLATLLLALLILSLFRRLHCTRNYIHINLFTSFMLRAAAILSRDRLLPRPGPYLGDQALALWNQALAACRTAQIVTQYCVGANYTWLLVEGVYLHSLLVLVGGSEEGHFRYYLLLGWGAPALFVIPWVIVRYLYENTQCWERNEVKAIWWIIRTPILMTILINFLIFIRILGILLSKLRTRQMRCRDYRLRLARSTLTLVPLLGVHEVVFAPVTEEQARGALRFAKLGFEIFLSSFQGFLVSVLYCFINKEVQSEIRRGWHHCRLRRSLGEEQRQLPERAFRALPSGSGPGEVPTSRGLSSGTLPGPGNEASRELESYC
How it was run: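 Four-parameter fits of cAMP dose-response gave pIC50. cAMP fall was quantified by HTRF competition, ratio 665/620 nm after 60 min at room temperature, against a cAMP standard curve.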

human GIP receptor [2] = target: T1, human GIP receptor; assay: cAMP agonism (CisBio cAMP Dynamic 2 HTRF assay); conditions: for Emax: HEK293, read-out: cAMP agonism, % Efficacy, Table 1C, HEK-293 cells
Method: To test for agonistic properties at the GIP receptor, compounds were diluted and added to cells as described above and incubated for 30 min at 37° C. The resulting increase in intracellular cAMP was determined using the CisBio cAMP Dynamic 2 HTRF Assay Kit as described above.

human GIP receptor [3] = target: T1, human GIP receptor; assay: cAMP accumulation, agonism (DiscoveRx HitHunter cAMP XS assay); parameters: host or cells: COS-7 (transient, calcium phosphate; pCMV-Script vector); conditions: for cAMP agonism, Emax: Table 1B, DiscoveRx, COS-7 cells; for Emax: COS-7, read-out: cAMP agonism, Emax
How it was run: (§1)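 cAMP accumulation measured by HitHunter cAMP XS in COS-7 cells transiently expressing human GIP receptor, after 30 min in HBS with 1 mM IBMX at 37 °C. Antagonists preincubated 10 min before GIP giving 50-80% of maximum, then 20 min more; agonist mode used 30 min ligand exposure.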

human GIP receptor [4] = target: T1, human GIP receptor; assay: cAMP accumulation, antagonism (DiscoveRx HitHunter cAMP XS assay); parameters: host or cells: COS-7 (transient, calcium phosphate; pCMV-Script vector); conditions: Table 1B, DiscoveRx; for cAMP antagonism, % inhib: COS-7 cells, % inhibition of Emax; for IC50: cAMP antagonism, nM (IC50), transiently transfected COS-7 cells
How it was run: as §1

Structure (SMILES) | cAMP antagonism, % inhib (human GIP receptor [1]) | IC50 (human GIP receptor [1]) | Emax (human GIP receptor [2]) | cAMP agonism, Emax (human GIP receptor [3]) | cAMP antagonism, % inhib (human GIP receptor [4]) | IC50 (human GIP receptor [4]) | cAMP agonism, % Efficacy (human GIP receptor [2]; Table 1C, HEK-293 cells) | Emax (human GIP receptor [3])
CC[C@H](C)[C@H](NC(=O)[C@H](CO)NC(=O)[C@H](Cc1ccc(O)cc1)NC(=O)[C@H](CC(=O)O)NC(=O)[C@H](CO)NC(=O)[C@@H](NC(=O)[C@H](Cc1ccccc1)NC(=O)[C@@H](NC(=O)CNC(=O)CN)[C@@H](C)O)[C@@H](C)CC)C(=O)N[C@@H](C)C(=O)N[C@@H](CCSC)C(=O)N[C@@H](CC(=O)O)C(=O)N[C@@H](CCCNC(=N)N)C(=O)N[C@H](C(=O)N[C@@H](CCCCNC(=O)CCCCCCCCCCCCCCC(=O)O)C(=O)N[C@@H](CCC(N)=O)C(=O)N[C@@H](CCC(N)=O)C(=O)N[C@@H](CC(=O)O)C(=O)N[C@@H](Cc1ccccc1)C(=O)N[C@H](C(=O)N[C@@H](CC(N)=O)C(=O)N[C@@H](Cc1c[nH]c2ccccc12)C(=O)N[C@@H](CC(C)C)C(=O)N[C@@H](CC(C)C)C(=O)N[C@@H](C)C(=O)N[C@@H](CCC(N)=O)C(=O)N[C@@H](CCCNC(=N)N)C(N)=O)C(C)C)[C@@H](C)CC [AT496] (H-GGTFISDYSIAMDRIK(C16 diacid)QQDFVNWLLAQR-NH2; N-terminus assumed) | 100% | 39.8 nM | 0% | No Agonism | 100% | 12 nM |  | 
CC[C@H](C)[C@H](NC(=O)[C@H](CO)NC(=O)[C@H](Cc1ccc(O)cc1)NC(=O)[C@H](CC(=O)O)NC(=O)[C@H](CO)NC(=O)[C@@H](NC(=O)[C@H](Cc1ccccc1)NC(=O)[C@@H](NC(=O)CNC(=O)[C@@H]1CCC(=O)N1)[C@@H](C)O)[C@@H](C)CC)C(=O)N[C@@H](C)C(=O)N[C@@H](CCSC)C(=O)N[C@@H](CC(=O)O)C(=O)N[C@@H](CCCNC(=N)N)C(=O)N[C@H](C(=O)N[C@@H](CCCCNC(=O)CCCCCCCCCCCCCCC(=O)O)C(=O)N[C@@H](CCC(N)=O)C(=O)N[C@@H](CCC(N)=O)C(=O)N[C@@H](CC(=O)O)C(=O)N[C@@H](Cc1ccccc1)C(=O)N[C@H](C(=O)N[C@@H](CC(N)=O)C(=O)N[C@@H](Cc1c[nH]c2ccccc12)C(=O)N[C@@H](CC(C)C)C(=O)N[C@@H](CC(C)C)C(=O)N[C@@H](C)C(=O)N[C@@H](CCC(N)=O)C(=O)N[C@@H](CCCNC(=N)N)C(N)=O)C(C)C)[C@@H](C)CC [AT390] ([pGlu]GTFISDYSIAMDRIK(C16 diacid)QQDFVNWLLAQR-NH2) | 81% | 15.9 nM | 4% | No Agonism | 100% | 1 nM |  | 
CC[C@H](C)[C@H](NC(=O)[C@H](CO)NC(=O)[C@H](Cc1ccc(O)cc1)NC(=O)[C@H](CC(=O)O)NC(=O)[C@H](CO)NC(=O)[C@@H](NC(=O)[C@H](Cc1ccccc1)NC(=O)[C@@H](NC(=O)CNC(=O)[C@@H](N)CO)[C@@H](C)O)[C@@H](C)CC)C(=O)N[C@@H](C)C(=O)N[C@@H](CCSC)C(=O)N[C@@H](CC(=O)O)C(=O)N[C@@H](CCCNC(=N)N)C(=O)N[C@H](C(=O)N[C@@H](CCCCNC(=O)CCCCCCCCCCCCCCC(=O)O)C(=O)N[C@@H](CCC(N)=O)C(=O)N[C@@H](CCC(N)=O)C(=O)N[C@@H](CC(=O)O)C(=O)N[C@@H](Cc1ccccc1)C(=O)N[C@H](C(=O)N[C@@H](CC(N)=O)C(=O)N[C@@H](Cc1c[nH]c2ccccc12)C(=O)N[C@@H](CC(C)C)C(=O)N[C@@H](CC(C)C)C(=O)N[C@@H](C)C(=O)N[C@@H](CCC(N)=O)C(=O)N[C@@H](CCCNC(=N)N)C(N)=O)C(C)C)[C@@H](C)CC [AT498] (H-SGTFISDYSIAMDRIK(C16 diacid)QQDFVNWLLAQR-NH2; N-terminus assumed) | 85% | 13.2 nM |  |  | 95% | 21 nM | 5% | 6%
CC[C@H](C)[C@H](NC(=O)[C@H](CO)NC(=O)[C@H](Cc1ccc(O)cc1)NC(=O)[C@H](CC(=O)O)NC(=O)[C@H](CO)NC(=O)[C@@H](NC(=O)[C@H](Cc1ccccc1)NC(=O)[C@@H](NC(=O)CNC(=O)[C@@H]1CCCN1)[C@@H](C)O)[C@@H](C)CC)C(=O)N[C@@H](C)C(=O)N[C@@H](CCSC)C(=O)N[C@@H](CC(=O)O)C(=O)N[C@@H](CCCNC(=N)N)C(=O)N[C@H](C(=O)N[C@@H](CCCCNC(=O)COCCOCCNC(=O)COCCOCCNC(=O)CC[C@H](NC(=O)CCCCCCCCCCCCCCC(=O)O)C(=O)O)C(=O)N[C@@H](CCC(N)=O)C(=O)N[C@@H](CCC(N)=O)C(=O)N[C@@H](CC(=O)O)C(=O)N[C@@H](Cc1ccccc1)C(=O)N[C@H](C(=O)N[C@@H](CC(N)=O)C(=O)N[C@@H](Cc1c[nH]c2ccccc12)C(=O)N[C@@H](CC(C)C)C(=O)N[C@@H](CC(C)C)C(=O)N[C@@H](C)C(=O)N[C@@H](CCC(N)=O)C(=O)N[C@@H](CCCNC(=N)N)C(=O)O)C(C)C)[C@@H](C)CC [AT279] (H-PGTFISDYSIAMDRIK([AEEA-AEEA-γGlu-C16 diacid])QQDFVNWLLAQR-OH; N-terminus assumed) | 81% |  | 14% |  |  | 19 nM |  | 17%
CC[C@H](C)[C@H](NC(=O)[C@H](CO)NC(=O)[C@H](Cc1ccc(O)cc1)NC(=O)[C@H](CC(=O)O)NC(=O)[C@H](CO)NC(=O)[C@@H](NC(=O)[C@H](Cc1ccccc1)NC(=O)[C@@H](NC(=O)CNC(=O)[C@@H]1CCCN1)[C@@H](C)O)[C@@H](C)CC)C(=O)N[C@@H](C)C(=O)N[C@@H](CCSC)C(=O)N[C@@H](CC(=O)O)C(=O)N[C@@H](CCCNC(=N)N)C(=O)N[C@H](C(=O)N[C@@H](CCCCNC(=O)COCCOCCNC(=O)COCCOCCNC(=O)CC[C@H](NC(=O)CCCCCCCCCCCCCCC(=O)O)C(=O)O)C(=O)N[C@@H](CCC(N)=O)C(=O)N[C@@H](CCC(N)=O)C(=O)N[C@@H](CC(=O)O)C(=O)N[C@@H](Cc1ccccc1)C(=O)N[C@H](C(=O)N[C@@H](CC(N)=O)C(=O)N[C@@H](Cc1c[nH]c2ccccc12)C(=O)N[C@@H](CC(C)C)C(=O)N[C@@H](CC(C)C)C(=O)N[C@@H](C)C(=O)N[C@@H](CCC(N)=O)C(=O)N[C@@H](CCCNC(=N)N)C(N)=O)C(C)C)[C@@H](C)CC [AT518] (H-PGTFISDYSIAMDRIK([AEEA-AEEA-γGlu-C16 diacid])QQDFVNWLLAQR-NH2; N-terminus assumed) | 71% | 85.8 nM | 0% |  | 100% |  |  | 5%
CC[C@H](C)[C@H](NC(=O)[C@H](CO)NC(=O)[C@H](Cc1ccc(O)cc1)NC(=O)[C@H](CC(=O)O)NC(=O)[C@H](CO)NC(=O)[C@@H](NC(=O)[C@H](Cc1ccccc1)NC(=O)[C@@H](NC(=O)CNC(=O)[C@@H]1CCC(=O)N1)[C@@H](C)O)[C@@H](C)CC)C(=O)N[C@@H](C)C(=O)N[C@@H](CCSC)C(=O)N[C@@H](CC(=O)O)C(=O)N[C@@H](CCCNC(=N)N)C(=O)N[C@H](C(=O)N[C@@H](CCCCNC(=O)CCCCCCCCCCCCCCCCC(=O)O)C(=O)N[C@@H](CCC(N)=O)C(=O)N[C@@H](CCC(N)=O)C(=O)N[C@@H](CC(=O)O)C(=O)N[C@@H](Cc1ccccc1)C(=O)N[C@H](C(=O)N[C@@H](CC(N)=O)C(=O)N[C@@H](Cc1c[nH]c2ccccc12)C(=O)N[C@@H](CC(C)C)C(=O)N[C@@H](CC(C)C)C(=O)N[C@@H](C)C(=O)N[C@@H](CCC(N)=O)C(=O)N[C@@H](CCCNC(=N)N)C(N)=O)C(C)C)[C@@H](C)CC [AT391] ([pGlu]GTFISDYSIAMDRIK(C18 diacid)QQDFVNWLLAQR-NH2) | 95% |  | 0% | No Agonism | 100% | 10 nM |  | 
